Assay results from patent publication US10729738B2, “Hindered disulfide drug conjugates” (priority 2015, dated 2020).
Where a SMILES comes first, the peptide text is derived from it. [ ]: non-standard residue; d: D form. The star is where a group is joined. X14 = CC(C)(COC(=O)*)SSc1nc2cc([N+](=O)[O-])ccc2[nH]1; Dolaproine = CO[C@@H]([C@@H]1CCCN1)[C@@H](C)C(=O)O; X11 = CC(C)(COC(=O)*)SSc1nc2ccc(C(=O)O)cc2[nH]1; X3 = CC(C)(COC(=O)*)SSc1ccc([N+](=O)[O-])cn1; Dil = CC[C@H](C)[C@H](NC)[C@@H](CC(=O)O)OC; X10 = CC(C)(COC(=O)*)SSc1nc2ncncc2[nH]1; X13 = CC(C)(COC(=O)*)SSc1nc2cnccc2[nH]1; X7 = CC(C)(COC(=O)*)SSc1nc2ccccc2[nH]1; X2 = C[C@@H](N*)[C@@H](O)c1ccccc1; X21 = CC(C)(COC(=O)*)SSc1ncc[nH]1; X20 = Cn1cnnc1SSC(C)(C)COC(=O)*; X1 = Cn1nnnc1SSC(C)(C)COC(=O)*; X18 = CC(C)(COC(=O)*)SSC(=N)N; NMeV = CN[C@H](C(=O)O)C(C)C

What was measured:
[1] = target: T1, penetratin (AntP) peptide (Drosophila melanogaster, UniProt P02833); experiment: Conjugation of activated disulfide-MMAE molecules to penetratin (AntP) peptide (% Product); conditions: peptide 25 uM, disulfide MMAE 5 equivalents, 75 mM Tris pH 8.5 and 10% DMF, ~16 hours at room temperature, UV peak area
T1 construct: C-terminal amide (CONH2); made in house; host or cells: chemical synthesis (Fmoc solid-phase peptide synthesis)
Experimental: In a second evaluation, MMAE was conjugated to penetratin (AntP) peptide. The AntP peptide, with sequence H2N-[…]-CONH2 (SEQ ID NO:1) bearing a free Cys thiol at the C-terminus, was synthesized via standard Fmoc solid-phase peptide synthesis methods. This peptide was conjugated at a concentration of 25 uM to disulfide MMAE molecules with varying leaving groups (5 equivalents) in a buffered solution composed of 75 mM Tris, pH 8.5 and 10% DMF for ˜16 hours at room temperature. Extent of the reaction was measured by dividing the integrated area for the UV peak of the MMAE-AntP conjugate by the sum of all peaks (“% Product”). The ideal value for % Product is 100%. The results are reported in table 31 below wherein the wavy line for the leaving group represent the point of attachment to the disulfide bond, and “AntP % P” refers to penetratin (AntP) peptide % product.

[2] = target: human serum albumin Cys-34 (Homo sapiens, UniProt P02768); experiment: Conjugation of activated disulfide-MMAE molecules to human serum albumin (Conjugate Ratio, LC/MS); conditions: disulfide MMAE compound at 10 molar equivalents relative to HSA, 75 mM Tris pH 8.5, ~16 hours at room temperature
Experimental: In a first evaluation, MMAE was conjugated to human serum albumin (HSA). […] This Cys residue is blocked as a mixed disulfide with Cys or glutathione, preventing complete conjugation of other molecules to this residue. […] Conjugate reactions were analyzed by LC/MS. The extent of the expected MMAE-HSA conjugate formed during the reaction is represented by the “Conjugate Ratio”, measured by dividing the abundance of the MS peak for the MMAE-HSA conjugate by the sum total abundance of all peaks observed. The ideal value for the Conjugate Ratio is 1.0. The results are reported in table 31 below wherein the wavy line for the leaving group represents the point of attachment to the disulfide bond, and “HSA CR” refers to human serum albumin conjugate ratio.

[3] = In vitro disulfide cleavage and immolation by incubation with cysteine or glutathione (LC/MS); type: physicochemical; conditions: for Percentage of all products: pH 7.0, 37° C.
Experimental: In a first phase of the experiment, disulfide cleavage and immolation by incubation with cysteine and glutathione—with the thiol concentrations mimic those in plasma and cancer cells—was investigated using unconjugated small molecule model systems with para-nitro-pyridyl disulfide-containing linker drug analogs 1, 2 and 11 below. In particular, cleavage and immolation was evaluated in vitro by incubation at […] with cysteine ([…] or 200 μM) or glutathione (GSH, 4 mM) in 100 mM Tris buffer pH 7.0 containing 5% methanol at 37° C. Aliquots were taken at specified time points and the samples were analyzed by LC/MS on Sciex TripleTOF 5600 on a Hypersil Gold C18 column (100×2.1, […], Thermo Scientific). The column was eluted by a gradient of buffer A (0.1% formic acid in 10 mM ammonium acetate) to buffer B (0.1% formic acid in 10 mM ammonium acetate in 90% acetonitrile), 5% B 0-0.5 min, 5-25% B 0.5-8 min, 25-75% B 8-13 min, and 75-95% B 13-13.5 min, 95% B 13.5-14.5 min, 95-5% B 14.5-15 min at 0.4 mL/min. Under these conditions, para-nitropyridyl thiol was eluted at 5.3 min. All products (compounds 1, 2, 11, 3a, 3b, 4a, 4b, 12a, 12 b, 6, 7, 13 and 8) were separated and characterized by LC/MS/MS in a positive ESI ion mode. All analytes had the protonated molecular MH^+ as the major species with little source fragmentation. Full scan accurate mass peak areas were used to estimate relative abundance of each component and the disappearance of 1, 2, and 11 estimated relative full scan peak areas was consistent with that estimated based on the relative abundance compared to time 0 by MS or UV. The results are reported in Table 15 below and the analytical results are presented in Table 16 below where “Cmpd” refers to compound, “RT” refers to retention time in minutes, and “Calc. Mass” refers to calculated mass. The relative abundance of disulfide cleavage and immolation products over time were evaluated and are disclosed in FIGS. 12A to 12C, 13A to 13C, 14A to 14C and 15A to 15C where the products were monitored by LC/MS from incubations of linker drugs 1, 2, and 11 at pH 7.0 and 37° C. in the presence of: 0.2 mM cysteine (FIGS. 12A, 12B and 12C); 0.03 mM cysteine (FIGS. 13A, 13B and 13C); 4 mM glutathione (FIGS. 14A, 14B and 14C); and 0.03 mM glutathione (FIGS. 15A, 15B and 15C). In FIGS. 12A to 12C, 13A to 13C, 14A to 14C and 15A to 15C, compound reference numbers 1, 2, 3a, 3b, 4a, 4b, 6, 7, 8, 11, 12a, 12b and 13 correspond to the structures below.

human serum albumin Cys-34, sequence (P02768 25-609): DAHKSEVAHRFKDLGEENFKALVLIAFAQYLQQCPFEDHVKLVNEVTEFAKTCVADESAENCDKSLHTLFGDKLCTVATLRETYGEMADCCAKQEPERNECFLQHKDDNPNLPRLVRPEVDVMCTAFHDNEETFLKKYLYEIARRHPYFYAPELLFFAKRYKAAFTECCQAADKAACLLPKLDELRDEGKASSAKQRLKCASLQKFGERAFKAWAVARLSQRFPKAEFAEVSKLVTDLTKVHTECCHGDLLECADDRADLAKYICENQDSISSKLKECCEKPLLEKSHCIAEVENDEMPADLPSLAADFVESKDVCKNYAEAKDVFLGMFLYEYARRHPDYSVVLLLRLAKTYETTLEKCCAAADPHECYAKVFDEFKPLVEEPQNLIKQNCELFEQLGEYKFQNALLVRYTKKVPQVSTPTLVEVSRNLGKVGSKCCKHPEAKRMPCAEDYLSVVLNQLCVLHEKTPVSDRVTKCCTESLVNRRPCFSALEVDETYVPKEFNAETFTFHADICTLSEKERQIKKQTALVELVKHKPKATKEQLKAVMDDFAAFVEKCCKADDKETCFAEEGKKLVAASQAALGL

CC[C@H](C)[C@@H]([C@@H](CC(=O)N1CCC[C@H]1[C@H](OC)[C@@H](C)C(=O)N[C@H](C)[C@@H](O)c1ccccc1)OC)N(C)C(=O)[C@@H](NC(=O)[C@H](C(C)C)N(C)C(=O)OCC(C)(C)SSc1ncc[nH]1)C(C)C (X21-[NMeV]V[Dil][Dolaproine]-X2)
AntP % P (penetratin (AntP) peptide % product) [1]: 1.7%
HAS CR (HSA Conjugation Ratio) [2]: 0.99

CC[C@H](C)[C@@H]([C@@H](CC(=O)N1CCC[C@H]1[C@H](OC)[C@@H](C)C(=O)N[C@H](C)[C@@H](O)c1ccccc1)OC)N(C)C(=O)[C@@H](NC(=O)[C@H](C(C)C)N(C)C(=O)OCC(C)(C)SSc1nncn1C)C(C)C (X20-[NMeV]V[Dil][Dolaproine]-X2)
AntP % P (penetratin (AntP) peptide % product) [1]: 17%
HAS CR (HSA Conjugation Ratio) [2]: 0.66

CC[C@H](C)[C@@H]([C@@H](CC(=O)N1CCC[C@H]1[C@H](OC)[C@@H](C)C(=O)N[C@H](C)[C@@H](O)c1ccccc1)OC)N(C)C(=O)[C@@H](NC(=O)[C@H](C(C)C)N(C)C(=O)OCC(C)(C)SSc1nnnn1C)C(C)C (X1-[NMeV]V[Dil][Dolaproine]-X2)
AntP % P (penetratin (AntP) peptide % product) [1]: 32%
HAS CR (HSA Conjugation Ratio) [2]: 0.86

CC[C@H](C)[C@@H]([C@@H](CC(=O)N1CCC[C@H]1[C@H](OC)[C@@H](C)C(=O)N[C@H](C)[C@@H](O)c1ccccc1)OC)N(C)C(=O)[C@@H](NC(=O)[C@H](C(C)C)N(C)C(=O)OCC(C)(C)SSc1nc2ccccc2[nH]1)C(C)C (X7-[NMeV]V[Dil][Dolaproine]-X2)
AntP % P (penetratin (AntP) peptide % product) [1]: 18%
HAS CR (HSA Conjugation Ratio) [2]: 0.52

CC[C@H](C)[C@@H]([C@@H](CC(=O)N1CCC[C@H]1[C@H](OC)[C@@H](C)C(=O)N[C@H](C)[C@@H](O)c1ccccc1)OC)N(C)C(=O)[C@@H](NC(=O)[C@H](C(C)C)N(C)C(=O)OCC(C)(C)SSc1nc2cnccc2[nH]1)C(C)C (X13-[NMeV]V[Dil][Dolaproine]-X2)
AntP % P (penetratin (AntP) peptide % product) [1]: 26%
HAS CR (HSA Conjugation Ratio) [2]: 0.86

CC[C@H](C)[C@@H]([C@@H](CC(=O)N1CCC[C@H]1[C@H](OC)[C@@H](C)C(=O)N[C@H](C)[C@@H](O)c1ccccc1)OC)N(C)C(=O)[C@@H](NC(=O)[C@H](C(C)C)N(C)C(=O)OCC(C)(C)SSc1nc2ccc(C(=O)O)cc2[nH]1)C(C)C (X11-[NMeV]V[Dil][Dolaproine]-X2)
AntP % P (penetratin (AntP) peptide % product) [1]: 20%
HAS CR (HSA Conjugation Ratio) [2]: 0.64

CC[C@H](C)[C@@H]([C@@H](CC(=O)N1CCC[C@H]1[C@H](OC)[C@@H](C)C(=O)N[C@H](C)[C@@H](O)c1ccccc1)OC)N(C)C(=O)[C@@H](NC(=O)[C@H](C(C)C)N(C)C(=O)OCC(C)(C)SSC(=N)N)C(C)C (X18-[NMeV]V[Dil][Dolaproine]-X2)
AntP % P (penetratin (AntP) peptide % product) [1]: 90%
HAS CR (HSA Conjugation Ratio) [2]: 0.98

CC[C@H](C)[C@@H]([C@@H](CC(=O)N1CCC[C@H]1[C@H](OC)[C@@H](C)C(=O)N[C@H](C)[C@@H](O)c1ccccc1)OC)N(C)C(=O)[C@@H](NC(=O)[C@H](C(C)C)N(C)C(=O)OCC(C)(C)SSc1nc2cc([N+](=O)[O-])ccc2[nH]1)C(C)C (X14-[NMeV]V[Dil][Dolaproine]-X2)
AntP % P (penetratin (AntP) peptide % product) [1]: 26%
HAS CR (HSA Conjugation Ratio) [2]: 0.69

CC[C@H](C)[C@@H]([C@@H](CC(=O)N1CCC[C@H]1[C@H](OC)[C@@H](C)C(=O)N[C@H](C)[C@@H](O)c1ccccc1)OC)N(C)C(=O)[C@@H](NC(=O)[C@H](C(C)C)N(C)C(=O)OCC(C)(C)SSc1ccc([N+](=O)[O-])cn1)C(C)C (X3-[NMeV]V[Dil][Dolaproine]-X2)
AntP % P (penetratin (AntP) peptide % product) [1]: 14%
HAS CR (HSA Conjugation Ratio) [2]: 0.11

CC[C@H](C)[C@@H]([C@@H](CC(=O)N1CCC[C@H]1[C@H](OC)[C@@H](C)C(=O)N[C@H](C)[C@@H](O)c1ccccc1)OC)N(C)C(=O)[C@@H](NC(=O)[C@H](C(C)C)N(C)C(=O)OCC(C)(C)SSc1nc2ncncc2[nH]1)C(C)C (X10-[NMeV]V[Dil][Dolaproine]-X2)
AntP % P (penetratin (AntP) peptide % product) [1]: 34%
HAS CR (HSA Conjugation Ratio) [2]: 0.6

C=C1CC2C=Nc3cc(OCCCCCOc4cc5c(cc4OC)C(=O)N4CC(=C)CC4C(O)N5C(=O)OCC(C)S)c(OC)cc3C(=O)N2C1 (stereo not drawn) [Compound 6]
Percentage of all products ([3]; 30 μM cysteine, 1 h): 2.5%
Percentage of all products ([3]; 30 μM cysteine, 4 h): 1.7%
Percentage of all products ([3]; 30 μM cysteine, 24 h): 0.5%
Percentage of all products ([3]; 200 μM cysteine, 1 h): 7.8%
Percentage of all products ([3]; 200 μM cysteine, 4 h): 2.8%
Percentage of all products ([3]; 200 μM cysteine, 24 h): 0.1%
Percentage of all products ([3]; 4 mM GSH, 1 h): 2.6%
Percentage of all products ([3]; 4 mM GSH, 4 h): 0%
Percentage of all products ([3]; 4 mM GSH, 24 h): 0%
Immolation of thiol intermediate ([3]; incubation with cysteine or glutathione): immolated quickly

C=C1C[C@H]2C=Nc3cc(OCCCCCOc4cc5c(cc4OC)C(=O)N4CC(=C)C[C@H]4C(O)N5C(=O)OCC4(SSC[C@H](N)C(=O)O)CC4)c(OC)cc3C(=O)N2C1 (stereo partly drawn) [Compound 4a]
Percentage of all products ([3]; 30 μM cysteine, 1 h): 73.7%
Percentage of all products ([3]; 30 μM cysteine, 4 h): 71.1%
Percentage of all products ([3]; 30 μM cysteine, 24 h): 75.9%
Percentage of all products ([3]; 200 μM cysteine, 1 h): 39.1%
Percentage of all products ([3]; 200 μM cysteine, 4 h): 15.2%
Percentage of all products ([3]; 200 μM cysteine, 24 h): 3.2%

C=C1C[C@H]2C=Nc3cc(OCCCCCOc4cc5c(cc4OC)C(=O)N4CC(=C)C[C@H]4C(O)N5C(=O)OCC4(SSc5ccc([N+](=O)[O-])cn5)CCC4)c(OC)cc3C(=O)N2C1 (stereo partly drawn) [Compound 11]
Percentage of all products ([3]; 30 μM cysteine, 1 h): 21.2%
Percentage of all products ([3]; 30 μM cysteine, 4 h): 15.5%
Percentage of all products ([3]; 30 μM cysteine, 24 h): 4.8%
Percentage of all products ([3]; 200 μM cysteine, 1 h): 6.5%
Percentage of all products ([3]; 200 μM cysteine, 4 h): 3.6%
Percentage of all products ([3]; 200 μM cysteine, 24 h): 1.5%
Percentage of all products ([3]; 4 mM GSH, 1 h): 9.1%
Percentage of all products ([3]; 4 mM GSH, 4 h): 4.5%
Percentage of all products ([3]; 4 mM GSH, 24 h): 0.7%

C=C1CC2C=Nc3cc(OCCCCCOc4cc5c(cc4OC)C(=O)N4CC(=C)CC4C(O)N5C(=O)OCC(C)SSCC(N)C(=O)O)c(OC)cc3C(=O)N2C1 (stereo not drawn) [Compound 3a]
Percentage of all products ([3]; 30 μM cysteine, 1 h): 80.1%
Percentage of all products ([3]; 30 μM cysteine, 4 h): 79.9%
Percentage of all products ([3]; 30 μM cysteine, 24 h): 75.0%
Percentage of all products ([3]; 200 μM cysteine, 1 h): 5.6%
Percentage of all products ([3]; 200 μM cysteine, 4 h): 1.9%
Percentage of all products ([3]; 200 μM cysteine, 24 h): 0%
